Assay: Atmospheric lifetime from the rate of reaction with hydroxyl radicals, relative to reference compounds (FTIR gas cell)
Type: physicochemical
Settings: gas phase reaction with hydroxyl radical relative to chloromethane/ethane; for Atmospheric Lifetime, E-isomer: E-isomer of the 1-propenylamine; for Atmospheric Lifetime, Z-isomer: Z-isomer of the 1-propenylamine
Method: The atmospheric lifetimes of 1-propenylamines were determined from their rate of reaction with hydroxyl radicals. The pseudo-first order rates for the reaction of the gaseous 1-propenylamines with hydroxyl radical were measured in a series of experiments relative to reference compounds such as chloromethane and ethane. The measurements were performed in a 5.7 L, heated FTIR gas cell equipped with a polished semiconductor-grade quartz window. An Oriel Instruments UV Lamp, Model 66921 equipped with a 480 W mercury-xenon bulb was used to generate hydroxyl radicals by photolyzing ozone in the presence of water vapor. The concentrations of the 1-propenylamine and the reference compound were measured as a function of reaction time using an I-Series FTIR from Midac Corporation. The atmospheric lifetimes were calculated from the reaction rates for the 1-propenylamines relative to the reference compounds and the reported lifetime of the reference compounds as shown below:
[formula] where τx is the atmospheric lifetime of the 1-propenylamine, τr is the atmospheric lifetime of the reference compound, and kx and kr are the rate constants for the reaction of hydroxyl radical with the isomeric 1-propenylamines and the reference compound, respectively.

Compound	Atmospheric Lifetime, E-isomer	Atmospheric Lifetime, Z-isomer
FC(=C(F)C(F)(F)F)N(C(F)(F)F)C(F)(F)C(F)(F)F [C2F5(CF3)N—CF═CFCF3]	1.4 Yrs	3.5 Yrs
FC(=C(F)C(F)(F)F)N(C(F)(F)F)C(F)(F)F [(CF3)2N—CF═CFCF3, 1,2,3,3,3-pentafluoro-N,N-bis(trifluoromethyl)prop-1-en-1-amine]	0.71 Yrs	1.9 Yrs

From US11479525B2, “Propenylamines and methods of making and using same” (3M INNOVATIVE PROPERTIES COMPANY, priority 2016, dated 2022)
